According to US20240376073A1 (Hoffmann-La Roche Inc., priority 2021, published 2024):
Counter-ions that a name gives are not always drawn.

Test system: Acinetobacter baumannii ATCC17961
Test: Antimicrobial susceptibility testing: 90% growth inhibitory concentration (IC90) determination
Assay type: cell-based
Conditions: Acinetobacter baumannii ATCC17961; Iso-Sensitest broth; growth by OD 600 nm over 16 h; 35±2° C.; read-out: ATCC 17961 IC90
Method in brief: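 Twofold serial dilutions (e.g. 50 to 0.097 μM final) in Iso-Sensitest broth, inoculated at ~5×10^(5) CFU/ml, incubated at 35±2° C. OD600 read every 20 min over 16 h; IC90 derived from growth inhibition during logarithmic growth.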

| Compound | IC90 [nM] |
| --- | --- |
| Cn1c(-c2ccc(OCC#N)c(F)c2F)cnc1C(=O)Nc1ccc(C(=O)N2CCC(C(=O)N3CC([N+](C)(C)C)C3)CC2)c(Cl)c1 [Example B31, [1-[1-[2-chloro-4-[[5-[4-(cyanomethoxy)-2,3-difluoro-phenyl]-1-methyl-imidazole-2-carbonyl]amino]benzoyl]piperidine-4-carbonyl]azetidin-3-yl]-trimethyl-ammonium; formate] | 250 |
| COc1ccc(-c2cnc(C(=O)Nc3ccc(C(=O)NCc4cnn(CC(=O)N5CC[N+](C)(C)CC5)c4)c(Cl)c3)n2C)c(F)c1F [Example B32, N-[3-chloro-4-[1-[2-(4,4-dimethylpiperazin-4-ium-1-yl)-2-oxo-ethyl]pyrazol-4-yl]methylcarbamoyl]phenyl]-5-(2,3-difluoro-4-methoxy-phenyl)-1-methyl-imidazole-2-carboxamide; formate] | 200 |
| COc1ccc(-c2cnc(C(=O)Nc3ccc(C(=O)N4CCN(C(=O)[C@@H]5COCC[N+]5(C)C)CC4)c(Cl)c3)n2C)c(F)c1F [Example B35, N-[3-chloro-4-[4-[(3S)-4,4-dimethylmorpholin-4-ium-3-carbonyl]piperazine-1-carbonyl]phenyl]-5-(2,3-difluoro-4-methoxy-phenyl)-1-methyl-imidazole-2-carboxamide; iodide] | 130 |

Second part, the compound after the results:

| IC90 [nM] | Compound |
| --- | --- |
| 540 | Cc1cc(NC(=O)c2ncc(-c3ccc(OCC#N)c(F)c3F)n2C)ccc1C(=O)N1CCN(C(=O)C2(O)CC[N+](C)(C)CC2)CC1 [Example B26, 4-(4-(4-(5-(4-(cyanomethoxy)-2,3-difluorophenyl)-1-methyl-1H-imidazole-2-carboxamido)-2-methylbenzoyl)piperazine-1-carbonyl)-4-hydroxy-1,1-dimethylpiperidin-1-ium formate] |
| 170 | Cn1c(-c2ccc(OCC#N)c(F)c2F)cnc1C(=O)Nc1ccc(C(=O)N2CCN(C(=O)[C@@H]3C[C@](C)(O)C[N+]3(C)C)CC2)c(Cl)c1 [Example B27, (2S,4S)-2-(4-(2-chloro-4-(5-(4-(cyanomethoxy)-2,3-difluorophenyl)-1-methyl-1H-imidazole-2-carboxamido)benzoyl)piperazine-1-carbonyl)-4-hydroxy-1,1,4-trimethylpyrrolidin-1-ium formate] |
| 220 | Cc1cc(NC(=O)c2ncc(-c3ccc(OCC#N)c(F)c3F)n2C)ccc1C(=O)N1CCN(C(=O)N[C@@H]2C[N+](C)(C)C[C@H]2O)CC1 [Example B28, (3R,4R)-3-(4-(4-(5-(4-(cyanomethoxy)-2,3-difluorophenyl)-1-methyl-1H-imidazole-2-carboxamido)-2-methylbenzoyl)piperazine-1-carboxamido)-4-hydroxy-1,1-dimethylpyrrolidin-1-ium formate] |
| 250 | Cc1cc(NC(=O)c2ncc(-c3ccc(OCC#N)c(F)c3F)n2C)ccc1C(=O)N1CCN(C(=O)N[C@H]2C[N+](C)(C)C[C@@H]2O)CC1 [Example B29, (3S,4S)-3-(4-(4-(5-(4-(cyanomethoxy)-2,3-difluorophenyl)-1-methyl-1H-imidazole-2-carboxamido)-2-methylbenzoyl)piperazine-1-carboxamido)-4-hydroxy-1,1-dimethylpyrrolidin-1-ium formate] |
| 110 | COc1ccc(-c2cnc(C(=O)Nc3ccc(C(=O)N4CCN(C(=O)[C@@H]5C[C@@](C)(O)C[N+]5(C)C)CC4)c(Cl)c3)n2C)c(F)c1F [Example B30, (2S,4R)-2-(4-(2-chloro-4-(5-(2,3-difluoro-4-methoxyphenyl)-1-methyl-1H-imidazole-2-carboxamido)benzoyl)piperazine-1-carbonyl)-4-hydroxy-1,1,4-trimethylpyrrolidin-1-ium formate] |
| 130 | COc1ccc(-c2cnc(C(=O)Nc3ccc(C(=O)N4CCN(C(=O)C5CC[N+](C)(C)CC5O)CC4)c(Cl)c3)n2C)c(F)c1F (stereo not shown) [Example B33, N-[3-chloro-4-[4-(3-hydroxy-1,1-dimethyl-piperidin-1-ium-4-carbonyl)piperazine-1-carbonyl]phenyl]-5-(2,3-difluoro-4-methoxy-phenyl)-1-methyl-imidazole-2-carboxamide; formate] |

Same assay, conditions: Acinetobacter baumannii, ATCC17961, 16 h, read-out: ATCC 17961 IC90, Acinetobacter baumannii ATCC17961; Iso-Sensitest broth; growth by OD 600 nm over 16 h; 35±2° C.

| Compound | IC90 [nM] |
| --- | --- |
| COc1ccc(-c2cnc(C(=O)Nc3ccc(C(=O)N4CCN(C(=O)[C@@H]5C[C@H](O)C[N+]5(C)C)CC4)c(Cl)c3)n2C)c(F)c1F [Example B34, N-[3-chloro-4-[4-[(2S,4S)-4-hydroxy-1,1-dimethyl-pyrrolidin-1-ium-2-carbonyl]piperazine-1-carbonyl]phenyl]-5-(2,3-difluoro-4-methoxy-phenyl)-1-methyl-imidazole-2-carboxamide; formate] | 140 |
| COc1ccc(-c2cnc(C(=O)Nc3ccc(C(=O)N4CCN(C(=O)[C@@H]5[C@@H](O)CC[N+]5(C)C)CC4)c(Cl)c3)n2C)c(F)c1F [Example B36, N-[3-chloro-4-[4-[(2S,3S)-3-hydroxy-1,1-dimethyl-pyrrolidin-1-ium-2-carbonyl]piperazine-1-carbonyl]phenyl]-5-(2,3-difluoro-4-methoxy-phenyl)-1-methyl-imidazole-2-carboxamide; formate] | 220 |
| COc1ccc(-c2cnc(C(=O)Nc3ccc(C(=O)N4CCN(C(=O)[C@@H]5C[C@H](O)CC[N+]5(C)C)CC4)c(Cl)c3)n2C)c(F)c1F [Example B38, N-[3-chloro-4-[4-[(2S,4R)-4-hydroxy-1,1-dimethyl-piperidin-1-ium-2-carbonyl]piperazine-1-carbonyl]phenyl]-5-(2,3-difluoro-4-methoxy-phenyl)-1-methyl-imidazole-2-carboxamide; formate] | 180 |
| COc1ccc(-c2cnc(C(=O)Nc3ccc(C(=O)N4CCN(C(=O)NC5C[N+](C)(C)CC5O)CC4)c(Cl)c3)n2C)c(F)c1F (stereo not shown) [Example B39, 4-[2-chloro-4-[[5-(2,3-difluoro-4-methoxy-phenyl)-1-methyl-imidazole-2-carbonyl]amino]benzoyl]-N-(4-hydroxy-1,1-dimethyl-pyrrolidin-1-ium-3-yl)piperazine-1-carboxamide; formate] | 110 |
| COc1ccc(-c2cnc(C(=O)Nc3ccc(C(=O)N4CCN(C(=O)[C@@H]5C[C@@H](O)C[N+]5(C)C)CC4)c(Cl)c3)n2C)c(C(F)F)c1F [Example B40, N-[3-chloro-4-[4-[(2S,4R)-4-hydroxy-1,1-dimethyl-pyrrolidin-1-ium-2-carbonyl]piperazine-1-carbonyl]phenyl]-5-[2-(difluoromethyl)-3-fluoro-4-methoxy-phenyl]-1-methyl-imidazole-2-carboxamide; formate] | 260 |
| Cn1c(-c2ccc(OC(F)F)c(F)c2F)cnc1C(=O)Nc1ccc(C(=O)N2CCN(C(=O)[C@@H]3C[C@@H](O)C[N+]3(C)C)CC2)c(Cl)c1 [Example B41, N-[3-chloro-4-[4-[(2S,4R)-4-hydroxy-1,1-dimethyl-pyrrolidin-1-ium-2-carbonyl]piperazine-1-carbonyl]phenyl]-5-[4-(difluoromethoxy)-2,3-difluoro-phenyl]-1-methyl-imidazole-2-carboxamide; formate] | 76 |
| COc1ccc(-c2cnc(C(=O)Nc3ccc(C(=O)N4CCN(C(=O)[C@@H]5C[C@@H](CO)C[N+]5(C)C)CC4)c(Cl)c3)n2C)c(F)c1F [Example B42, N-[3-chloro-4-[4-[(2S,4R)-4-(hydroxymethyl)-1,1-dimethyl-pyrrolidin-1-ium-2-carbonyl]piperazine-1-carbonyl]phenyl]-5-(2,3-difluoro-4-methoxy-phenyl)-1-methyl-imidazole-2-carboxamide; formate] | 140 |
